test: gradient 5% acetonitrile 3 min, to 50% in 2 min, to 85% in 15 min, held 3 min, 100 µL/min; details: column: Zorbax Extend-C18 2.1 x 50 mm; eluents: water / acetonitrile, 0.1% formic acid
How it was run: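 Retention time was recorded from adduct peaks, which were picked computationally and each inspected manually. Pure standards ran in mixtures of ~100 molecules on HPLC coupled to a quadrupole time-of-flight mass spectrometer, in positive and negative ionization mode, through a Zorbax Extend-C18 column (2.1 × 50 mm, 1.8 μm) at 100 μL/min. Eluents were water and acetonitrile, each with 0.1% formic acid.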

RP-LC retention time	Compound
603 s	Cc1cccn2c(=O)cc(CN(C)Cc3ccccc3)nc12
662 s	CN(CC(=O)Nc1ccc(S(N)(=O)=O)cc1)c1nc2ccccc2s1
921 s	Cc1c(C(=O)C(=O)Nc2ccc(F)cc2)c2ccccc2n1C
857 s	O=C(CN1C(=O)CCCc2cc(S(=O)(=O)N3CCCC3)ccc21)Nc1ccc(F)cc1Cl
703 s	CC(=O)Nc1cccc(N2CC(C(=O)Nc3ccc(Br)c(C)c3)CC2=O)c1 (stereo unspecified)
808 s	Cc1ccc(NC(=O)Cn2c(=O)c3cc(C4CC4)nn3c3ncccc32)c(C)c1
874 s	O=C(NCc1ccc(F)cc1)N1CCc2nc(-c3ccccc3)ncc2C1
884 s	Nc1ccc(N2C(=O)c3ccccc3C2=O)c(Cl)c1
1030 s	Cc1ccc(C(=O)Nc2cccn3nc(C(C)C)nc23)cc1C
982 s	COc1ccccc1C(O)Cn1ccn2nc(-c3ccc(C)c(C)c3)cc2c1=O (stereo unspecified)
1260 s	CCCN1C(=O)COc2ccc(-c3noc(C(C)Oc4cccc(Cl)c4)n3)cc21 (stereo unspecified)
1280 s	CCCOc1nc2ccccc2nc1N1CCCC(C(=O)Nc2ccccc2OCC)C1 (stereo unspecified)
590 s	COC(=O)CNC(=O)N1CCN(c2nc3ccccc3n3cccc23)CC1
730 s	O=C(Nc1cccc(F)c1)N1CCC2(C1)C(=O)Nc1ccccc12 (stereo unspecified)
794 s	O=C(CCc1ccc2cc[nH]c2c1)NCc1ccccc1
708 s	CC(=O)N1CCc2cc(N3CC(C(=O)NCc4ccccc4Cl)CC3=O)ccc21 (stereo unspecified)
916 s	CCC(C(=O)NCCc1c[nH]c2ccccc12)n1c2ccccc2c2cnn(C)c(=O)c21 (stereo unspecified)
1210 s	O=C(Cn1cccc1-c1nc(-c2ccccc2)no1)N1CCCc2ccccc21
945 s	Cc1ccc(Cl)cc1NC(=O)NC(C)C(=O)N1CCc2ccccc21 (stereo unspecified)
929 s	Cc1ccc2ncn(C3CCN(S(=O)(=O)c4ccccc4C)CC3)c(=O)c2c1
920 s	COC(=O)C1=CN(c2ccc(C)c(F)c2)c2ccc(F)cc2S1(=O)=O
831 s	O=C(CN1N=C(C(=O)Nc2ccc(F)cc2)CCC1=O)Nc1cc(F)ccc1F
1250 s	Cc1ccc(-c2nc(C3CC(=O)N(c4ccc(F)c(Cl)c4)C3)no2)c(C)c1 (stereo unspecified)
775 s	COc1ccc2nc(NC(=O)C3CCN(C(=O)C4Sc5ccccc5NC4=O)CC3)sc2c1 (stereo unspecified)
620 s	Cc1ccccc1C(=O)N1C[C@@H](F)C[C@H]1C(=O)N1CCOCC1
644 s	CCC(C)NC(=O)c1ccc2c(c1)CC(=O)N2C (stereo unspecified)
924 s	COc1cccc(-c2cc(=O)n3c4ccccc4n(CC(=O)Nc4ccc5c(c4)OCO5)c3n2)c1

More lines, now with the values behind:

Compound	RP-LC retention time
COc1ccc(-c2nnc(Cc3nc(-c4cccc(F)c4)no3)o2)cc1OC	911 s
CCOC(=O)c1c(C)[nH]c(C(=O)N2CCC(CC(=O)NCc3cccnc3)CC2)c1C	608 s
Cn1cnc(S(=O)(=O)N2CCCC(c3nnnn3-c3ccccc3)C2)c1 (stereo unspecified)	690 s
Cn1ncc2c3ccccc3n(CCCC(=O)NCc3cccs3)c2c1=O	817 s
CCOc1ccc(-c2noc(C3CC(=O)N(c4ccc(C)cc4)C3)n2)cc1 (stereo unspecified)	1080 s
COc1ccc(-n2nc3c(N4CCCC(C(=O)NCc5cccs5)C4)nnc(C)c3c2C)cc1 (stereo unspecified)	724 s
CC1CCN(c2nc3c(c(=O)n(C)c(=O)n3C)n2Cc2ccccc2F)CC1	1090 s
O=C(CCc1c(-c2ccc(Br)cc2)nc2ccccn12)NCc1ccco1	660 s
COc1ccc(-c2ccnc3nc(C4CC4)nn23)c(F)c1	797 s
COc1ccc(-c2nc(NC3CCCC3)c3ccccc3n2)cc1	825 s
COc1ccc(N2CCN(CCNC(=O)c3ccc(S(=O)(=O)N(C)C)cc3)CC2)cc1	589 s
COc1ccc(C)cc1NC(=O)CN1C(=O)NC2(CCC(C)CC2)C1=O (stereo unspecified)	853 s
Cn1cnc2cc(CNC(=O)c3ccc(C#N)cc3)ccc21	578 s
Fc1cccc(Cn2cc(-c3noc(-c4ccccc4)n3)nn2)c1	986 s
CN(C(=O)Cn1nc2n(c1=O)CCCCC2)c1ccccc1	655 s
COc1ccc(Cn2cc(S(=O)(=O)N3CCCC3)ccc2=O)cc1	796 s
Cc1c(-c2noc(C(=O)NCCN3CCCC3)n2)oc2c(C)cccc12	668 s
O=S(=O)(c1ccccc1Cl)N1CC(F)(F)C[C@H]1COc1cccnc1	731 s
CC1(C)CC(=O)c2cn(-c3ccccc3)c(=O)c(C(=O)N3CCC(N4CCCCC4)CC3)c2C1	622 s
CC(C)c1ccc(S(=O)(=O)N2CCc3c(c(-c4nnc(-c5ccc(F)cc5)o4)nn3C)C2)cc1	1100 s

Compound	RP-LC retention time
CC1CCCN(CCCNC(=O)CCC(=O)N2CCc3c(c(C(=O)N4CCCCC4)nn3C)C2)C1 (stereo unspecified)	594 s
Cc1nc(-c2noc(-c3cccnc3)n2)cn1CC(=O)NC1CCCCC1	668 s
Cc1ccc(-c2nnc(Cc3nc(-c4cccc(C)c4)no3)o2)cc1	1110 s
O=C(C1CCN(Cc2cc3ccccc3n2Cc2ccccc2)CC1)N1CCOCC1	683 s
Cn1c(=O)c2c3c(cnc2n(C)c1=O)C(=O)CCC3	704 s
Cc1noc(COC2CCCN(C(=O)C3(c4ccccc4)CC3)C2)n1 (stereo unspecified)	791 s
Cc1cnn(Cc2nc(-c3ccc(NC(=O)C4CCCC4)cc3)oc2C)c1	905 s
CCCN1C(=O)COc2ccc(-c3noc(-c4ccc(CS(=O)(=O)c5ccccc5)cc4)n3)cc21	1130 s
O=C(CSc1nccn1-c1ccc([N+](=O)[O-])cc1)NC1CCCCC1	730 s
Cn1c(=O)c(=O)n(C)c2cc(N3CCCCC3)c(NC(=O)c3ccco3)cc21	840 s
O=c1c2ccccc2n(Cc2nc(-c3ccc(F)cc3)no2)c(=O)n1Cc1ccco1	1050 s
CC1(COc2ccc3c(c2)ncn3-c2ccc3cccc(N4CCC(N)CC4)c3n2)COC1	667 s
c1ccc(-c2nc3cc(-c4noc(C5CCOC5)n4)ccc3o2)cc1 (stereo unspecified)	1100 s
CCOc1ccccc1NC(=O)N(C)CCc1noc(COc2ccccc2)n1	977 s
Cc1oc(-c2[nH]ncc2C(=O)N2CCOCC2)cc1S(=O)(=O)NCC1CCCCC1	742 s
CCc1nc2ncc(-c3ccnc(N4CCN(C)CC4)n3)c(C)n2n1	562 s
O=C(c1nc2nc(-c3cccs3)cc(C(F)(F)F)n2n1)N1CCN(c2ccccn2)CC1	672 s
Cc1c([C@@H](C)C2NC[C@@H](C)C[C@H]2O)ccc2c1C[C@@H]1[C@H]2CC=C2C[C@@H](O)CC[C@@]21C (stereo partly specified)	749 s
O=C(CCC1CCCN(S(=O)(=O)c2ccccc2F)C1)NCc1cccs1 (stereo unspecified)	908 s

From the METLIN SMRT retention time set (Domingo-Almenara et al. 2019)
